Measurements from US5880122A, “3-Carboxamide derivatives of 5H-pyrrolo[2,1-c][1,4]-benzodiazepines” (American Home Products Corporation, priority 1997, dated 1999).
Counter-ions that a name gives are not always drawn.

Target: T1, Human V2 Vasopressin Receptor (Homo sapiens, UniProt P30518)
T1 construct: expressed in transfected cells; host or cells: mouse fibroblast cell line LV-2
Test: Binding to membranes of mouse fibroblast cell line (LV-2) transfected with the cDNA expressing the human V2 vasopressin receptor
Conditions: LV-2 cell membranes, [3H] Arginine8 vasopressin 0.8 nM, 120 min
Description: Flasks of 175 ml capacity, containing attached cells grown to confluence, are cleared of culture medium by aspiration. The flasks containing the attached cells are rinsed with 2×5 ml of phosphate buffered saline (PBS) and the liquid aspirated off each time. Finally, 5 ml of an enzyme free dissociation Hank's based solution (Specialty Media, Inc., Lafayette, N.J.) is added and the flasks are left undisturbed for 2 min. The content of all flasks is poured into a centrifuge tube and the cells pelleted at 300×g for 15 min. […] The homogenate is centrifuged at 1500×g for 10 min to remove ghost membranes. […] Upon completion, the pellet is resuspended in a small volume of 50.0 mM Tris.HCl buffer, pH 7.4. The protein content is determined by the Lowry method and the receptor membranes are suspended in 50.0 mM Tris.HCl buffer containing 0.1 mM phenylmethylsulfonylfluoride (PMSF) and 0.2% bovine serum albumin (BSA) to give 2.5 mg receptor protein per ml of suspension.
Arginine^8, vasopressin (S.A. 75.0 Ci/mmole) at 0.8 nM and the reaction initiated by the addition of 80.0 ml of tissue membranes (200.0 mg tissue protein). […] Non specific binding is assessed in the presence of 1.0 mM of unlabeled ligand, added in 20 ml volume. […] The data are analyzed for IC50 values by the LUNDON-2 program for competition (LUNDON SOFTWARE, Ohio).

T1 sequence (P30518 whole entry): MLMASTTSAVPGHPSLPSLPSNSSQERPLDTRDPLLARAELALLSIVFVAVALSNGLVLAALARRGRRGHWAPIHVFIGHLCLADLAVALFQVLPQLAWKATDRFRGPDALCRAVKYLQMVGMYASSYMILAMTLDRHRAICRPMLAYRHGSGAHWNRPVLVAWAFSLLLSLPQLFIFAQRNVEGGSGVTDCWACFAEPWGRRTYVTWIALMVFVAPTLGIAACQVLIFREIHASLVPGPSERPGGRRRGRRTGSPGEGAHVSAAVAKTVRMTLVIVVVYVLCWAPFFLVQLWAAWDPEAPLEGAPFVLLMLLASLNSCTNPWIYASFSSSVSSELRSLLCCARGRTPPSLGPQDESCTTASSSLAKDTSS

SMILES | IC50
O=C(Nc1cc(C(=O)N2Cc3ccc(C(=O)C(Cl)(Cl)Cl)n3Cc3ccccc32)ccc1Cl)c1ccccc1-c1ccccc1 [Example 6, N-[5-[3-trichloromethylcarbnyl]-[5H-pyrrolo-[2,1-c]-[1,4]-benzdiazalin-10(11H)-ylcarbonyl]-2-chloronhenyl]-2-henylbenzamide] | 5.6 nM
Cc1ccc(F)cc1C(=O)Nc1ccc(C(=O)N2Cc3ccc(C(=O)[N-][N+](C)(C)C)n3Cc3ccccc32)c(Cl)c1 [Example 5, 2-[[10-[2-Chloro-4-[(5-fluoro-2-methylbenzoyl)amino]benzoyl]-10,11-dihydro-5H-pyrrolo[2,1-c][1,4]benzodiazepin-3-yl]hydroxymethylenel-1.1,1-trimetpyIpydraziniuminner salt] | 60 nM

Tested on: Endogenous Arginine Vasopressin Antidiuretic (V2) Response
Test: Antagonism of endogenous arginine vasopressin antidiuretic (V2) response in conscious rats (urine volume)
Format: in vivo, Sprague-Dawley rats
Conditions: oral 10 mg/kg dose, urine collected for 4 hours, no water during test
Description: On the day of test, rats were placed individually into metabolic cages equipped with stainless steel screens (to separate the feces from the urine) and funnels for collection of urine. Vehicle or reference agent was given at various oral doses. During the test, rats were not provided with water or food. Urine was collected for four hours after dosing of the test compound. At the end of four hours, urine volume was measured. […] Determinations of Na^+, K^+ and Cl^- ion were carried out using ion specific electrodes in a Beckman SYNCHRON EL-ISE Electrolyte System analyzer.

SMILES | Urine Volume (ml/4 hrs) 10 mg/kg rat p.o.
CN(C)C1CCN(C(=O)c2ccc3n2Cc2ccccc2N(C(=O)c2ccc(NC(=O)c4ccccc4-c4ccccc4)cc2Cl)C3)CC1 [Example 12, Biphenyl-2-carboxylic acid {3-chloro-4-[3-(4-dimethylamino-piperidine-1-carbonyl)-5H,11H-1pyrrolo[2,1-c][1,4]benzodiazeline-10-carbonyl]-phenyl}-amide.] | 21.4 ml/4 hrs
O=C(O)CNC(=O)c1ccc2n1Cc1ccccc1N(C(=O)c1ccc(NC(=O)c3ccccc3-c3ccccc3)cc1Cl)C2 [Example 18] | 7.8 ml/4 hrs
CN1CCN(C(=O)c2ccc3n2Cc2ccccc2N(C(=O)c2ccc(NC(=O)c4ccccc4-c4ccccc4)cc2Cl)C3)CC1 [Example 9] | 23.7 ml/4 hrs
O=C(Nc1ccc(C(=O)N2Cc3ccc(C(=O)N4CCC(N5CCCCC5)CC4)n3Cc3ccccc32)c(Cl)c1)c1ccccc1-c1ccccc1 [Example 11, Biphenyl-2-carboxylic acid{3-chloro-4-[3-(4-piperidinyl-pilperidine-1-carbonyl)-5H,11H-pyrrolo[2,1-c][1,4]benzodiazepine-10-carbonyl]-phenyl}-amide.] | 20.5 ml/4 hrs
CN(C)NC(=O)c1ccc2n1Cc1ccccc1N(C(=O)c1ccc(NC(=O)c3ccccc3-c3ccccc3)cc1Cl)C2 [Example 8] | 40.9 ml/4 hrs
COc1cc(NC(=O)c2ccccc2-c2ccccc2)ccc1C(=O)N1Cc2ccc(C(=O)NN(C)C)n2Cc2ccccc21 [Example 17] | 9.4 ml/4 hrs
O=C(Nc1ccc(C(=O)N2Cc3ccc(C(=O)N4CCC(N5CCOCC5)CC4)n3Cc3ccccc32)c(Cl)c1)c1ccccc1-c1ccccc1 [Example 15, Biphenyl-2-carboxylic acid{3-chloro-4-[3-(4-morpholino-1piperidine-1-carbonyl)-5H,11H-pyrrolo[2,1-c][1,4]benzodiazepine-10-carbonyl]-phenyl}-amide.] | 19.3 ml/4 hrs
CN1CCN(NC(=O)c2ccc3n2Cc2ccccc2N(C(=O)c2ccc(NC(=O)c4ccccc4-c4ccccc4)cc2Cl)C3)CC1 [Example 13, Bilphenyl-2-carboxylic acid{3-chloro-4-[3-(4-methyl-piperazine-1 aminocarbonyl)-5H,11H-pyrrolo[2,1-c][1,4]benzodiazepine-10-carbonyl]-phenyl}-amide.] | 16.8 ml/4 hrs
O=C(Nc1ccc(C(=O)N2Cc3ccc(C(=O)O)n3Cc3ccccc32)c(Cl)c1)c1ccccc1-c1ccccc1 [Example 7] | 19.2 ml/4 hrs
Cc1ccc(F)cc1C(=O)Nc1ccc(C(=O)N2Cc3ccc(C(=O)N[N+](C)(C)C)n3Cc3ccccc32)c(Cl)c1 [Example 4] | 9.2 ml/4 hrs
COc1cc(NC(=O)c2ccccc2-c2ccccc2)ccc1C(=O)N1Cc2ccc(C(=O)N3CCN(C)CC3)n2Cc2ccccc21 [Example 16] | 24.3 ml/4 hrs
Cc1ccc(F)cc1C(=O)Nc1ccc(C(=O)N2Cc3ccc(C(=O)[N-][N+](C)(C)C)n3Cc3ccccc32)c(Cl)c1 [Example 5, 2-[[10-[2-Chloro-4-[(5-fluoro-2-methylbenzoyl)amino]benzoyl]-10,11-dihydro-5H-pyrrolo[2,1-c][1,4]benzodiazepin-3-yl]hydroxymethylenel-1.1,1-trimetpyIpydraziniuminner salt] | 9.1 ml/4 hrs
